Reference: PubChem BioAssay (NCI)
Values joined by “and” are separate entries in the source; they are usually repeats but may differ in a detail not shown here. Equal entries are not always repeated.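 Five compound concentrations were applied to cells in 96-well plates for 48 hours; endpoints were derived by simple linear interpolation of the resulting dose-response curve. GI50 marks 50% less growth. TGI denotes the concentration required for complete inhibition of growth.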

Key:
Assay in all cases: NCI-60 cell line screen, 48 h
786-0 renal = system: 786-0 renal
HCT-116 colon = system: HCT-116 colon
HCT-15 colon = system: HCT-15 colon
MOLT-4 leukemia = system: MOLT-4 leukemia
NCI-H23 lung = system: NCI-H23 lung
NCI-H460 lung = system: NCI-H460 lung
OVCAR-3 ovarian = system: OVCAR-3 ovarian
OVCAR-5 ovarian = system: OVCAR-5 ovarian
SK-MEL-28 melanoma = system: SK-MEL-28 melanoma
TK-10 renal = system: TK-10 renal

Row | SMILES | GI50 (786-0 renal) | TGI (786-0 renal) | GI50 (HCT-116 colon) | TGI (HCT-116 colon) | GI50 (HCT-15 colon) | TGI (HCT-15 colon) | GI50 (MOLT-4 leukemia) | TGI (MOLT-4 leukemia) | GI50 (NCI-H23 lung) | TGI (NCI-H23 lung) | GI50 (NCI-H460 lung) | TGI (NCI-H460 lung) | GI50 (OVCAR-3 ovarian) | TGI (OVCAR-3 ovarian) | GI50 (OVCAR-5 ovarian) | TGI (OVCAR-5 ovarian) | GI50 (SK-MEL-28 melanoma) | TGI (SK-MEL-28 melanoma) | GI50 (TK-10 renal) | TGI (TK-10 renal)
1 | N#Cc1nc2cc(F)c(F)cc2nc1-c1ccc(Cl)cc1 | 16.3 µM | 43.9 µM | 10.7 µM | 29.2 µM | 1.44 µM | 2.76 µM | 3.21 µM | > 28.3 µM | 7.92 µM | 33.9 µM | 57.5 µM | > 100 µM | 2.24 µM | 8.28 µM | > 100 µM | > 100 µM | 22 µM | > 100 µM | 22.4 µM | 67.3 µM
2 | COc1ccc2c(c1)OC(N)=C(C#N)C2c1ccc(F)cc1 (stereo not given) | 3.96 µM | > 100 µM | 1.09 µM | 26 µM | 0.515 µM | 51.6 µM | 1.32 µM | > 100 µM | 4.03 µM | > 100 µM | 2.05 µM | > 100 µM | 0.829 µM | 14.2 µM | 14.5 µM | > 100 µM | 15.2 µM | > 100 µM | 5.83 µM | > 100 µM
3 | COC(=O)[C@@]1(O)C[C@H]2O[C@]1(C)n1c3ccccc3c3c4c(c5c6ccccc6n2c5c31)C(=O)NC4 | 0.312 µM | 1.67 µM | 0.102 µM | 2.24 µM | 0.0706 µM | 2.5 µM | 0.0678 µM | 0.825 µM | 0.212 µM | 2.36 µM | 0.121 µM | 1.38 µM | 0.587 µM | 3.22 µM | 0.21 µM | 8.12 µM | 0.203 µM | 1.26 µM | 0.0284 µM | 1.39 µM
4 | Cc1ccc(N2C(=O)/C(=C/c3ccc(N(CCC#N)CCC#N)cc3C)N=C2c2cc([N+](=O)[O-])ccc2Cl)cc1 | – | > 100 µM | – | > 100 µM | – | > 100 µM | – | > 100 µM | – | > 100 µM | – | > 100 µM | – | > 100 µM | – | > 100 µM | – | > 100 µM | – | > 100 µM
5 | Cc1cccc2c1C/C(=C1\CCc3c(C)cccc31)C2=O | – | > 100 µM | – | > 100 µM | – | > 100 µM | – | > 100 µM | – | > 100 µM | – | > 100 µM | – | > 100 µM | – | > 100 µM | – | > 100 µM | – | > 100 µM
6 | N#CC1=C(N)Oc2c(sc3c(F)cccc23)C1c1ccc(F)cc1 (stereo not given) | 0.746 µM | 11.7 µM | 0.492 µM | 13 µM | 0.421 µM | 12 µM | 0.521 µM | 13.3 µM | 1.45 µM | 14.8 µM | 0.415 µM | 7.77 µM | 0.363 µM | 1.88 µM | 2.95 µM | 14.6 µM | 1.91 µM | 19.7 µM | 8.24 µM | 25.3 µM
7 | OC(CNc1ccnc2cc(Cl)ccc12)CNC1CCCCC1 (stereo not given) | 11.8 µM | 24.8 µM | 4.66 µM | 16.7 µM | 3.78 µM | 17 µM | 9.15 µM | 31.9 µM | 15.9 µM | 41 µM | 13.8 µM | 30.2 µM | 15 µM | 34.7 µM | 12.6 µM | 38.4 µM | 1.76 µM | 3.31 µM | 3.61 µM | 13.6 µM
8 | Clc1ccc2c(c1)-c1ccccc1C1=NCCN12 | 1.66 µM | 3.52 µM | 0.719 µM | 6.86 µM | 2.71 µM | 9.62 µM | 1.01 µM | 3.11 µM | 1.85 µM | 4.75 µM | 1.49 µM | 4.51 µM | 2.3 µM | 6.16 µM | 2.68 µM | 13.4 µM | 1.74 µM | 3.54 µM | 1.87 µM | 5.51 µM
9 | CN(C)CCNC(=O)c1cc2c3ccccc3[nH]c2c2ncccc12 | 15.2 µM | 53.5 µM | 3.95 µM | 25.3 µM | 5.88 µM | 25 µM | 3.46 µM | 16.5 µM | 11.6 µM | 32.6 µM | 4.17 µM | 18.4 µM | 0.0254 µM | 16.8 µM | 20.6 µM | 68.3 µM | 15.3 µM | 29.9 µM | 8.99 µM | 54.7 µM
10 | CCCCCCCCCCCC[n+]1ccc(C(N)=O)cc1 | 3.33 µM | 12.7 µM | 4.58 µM | 20.5 µM | 12.7 µM | 43.6 µM | 3.29 µM | > 100 µM | 2.81 µM | 14 µM | 3.81 µM | 14.1 µM | 2.28 µM | 8.72 µM | 1.47 µM | 4.56 µM | 4.33 µM | 15 µM | 1.73 µM | 4.26 µM
11 | CC(C)(c1ccc(OC#N)cc1)c1ccc(OC#N)cc1 | – | > 100 µM | – | > 61 µM | – | 39.7 µM | – | > 100 µM | – | > 100 µM | – | > 82.4 µM | – | > 100 µM | – | > 100 µM | – | > 100 µM | – | > 100 µM
12 | CS/C(c1ccccc1)=[N+](/C)[O-] | – | > 100 µM | – | > 100 µM | – | 41.1 µM | – | > 100 µM | – | > 100 µM | – | 99.4 µM | – | > 100 µM | – | > 100 µM | – | > 100 µM | – | > 100 µM
13 | S=C(Nc1ccccc1)N(Cc1ccccc1)c1ccccc1 | – | > 100 µM | – | > 100 µM | – | > 100 µM | – | > 100 µM | – | > 100 µM | – | > 100 µM | – | > 100 µM | – | > 100 µM | – | 78.4 µM | – | 80.3 µM
14 | Cc1ccc(S(=O)(=O)Nc2nc3ccccc3nc2Nc2ccc3nsnc3c2)cc1 | 3.65 µM | > 100 µM | 3.52 µM | 15.4 µM and > 100 µM | 3.61 µM and 3.84 µM | > 100 µM | 4.3 µM and 3.61 µM | 34.9 µM and > 100 µM | 2.78 µM and 2.93 µM | 44.5 µM and > 100 µM | 3.36 µM and 2.92 µM | 70.7 µM and > 100 µM | 3.23 µM and 3.65 µM | 14.8 µM and > 100 µM | 17.4 µM and > 81.2 µM | > 100 µM | 4.38 µM and 4.11 µM | > 100 µM | 5.18 µM and 3.14 µM | > 100 µM
15 | NCCCCN(Cc1nc2ccccc2[nH]1)[C@H]1CCCc2cccnc21 | 21.2 µM | > 77.1 µM | 6.81 µM | 51.3 µM | 24.3 µM | > 100 µM | 17.5 µM | 69.4 µM | 20.4 µM | > 100 µM | 7.47 µM | > 100 µM | 15.3 µM | > 100 µM | 11.8 µM | > 100 µM | 14.9 µM | 34.8 µM | 25.3 µM | > 75.3 µM
16 | O=C(CN1C(=O)c2ccccc2C1=O)C(O)CN1C(=O)c2ccccc2C1=O (stereo not given) | – | > 100 µM | – | > 100 µM | – | > 100 µM | – | > 100 µM | – | > 100 µM | – | > 100 µM | – | > 100 µM | – | > 100 µM | – | > 100 µM | – | > 100 µM
